These compounds were tested against T1, JAK3 (JH1 and JH2 domain) (Homo sapiens, UniProt P52333) (assay: JAK3 Kinase Assay (ELISA of peptide substrate phosphorylation)). Details: purified JAK3 enzyme, 10 μM ATP, biotinylated peptide substrate, 1 hour at room temperature.
T1 sequence (P52333 521-1111 limits assumed): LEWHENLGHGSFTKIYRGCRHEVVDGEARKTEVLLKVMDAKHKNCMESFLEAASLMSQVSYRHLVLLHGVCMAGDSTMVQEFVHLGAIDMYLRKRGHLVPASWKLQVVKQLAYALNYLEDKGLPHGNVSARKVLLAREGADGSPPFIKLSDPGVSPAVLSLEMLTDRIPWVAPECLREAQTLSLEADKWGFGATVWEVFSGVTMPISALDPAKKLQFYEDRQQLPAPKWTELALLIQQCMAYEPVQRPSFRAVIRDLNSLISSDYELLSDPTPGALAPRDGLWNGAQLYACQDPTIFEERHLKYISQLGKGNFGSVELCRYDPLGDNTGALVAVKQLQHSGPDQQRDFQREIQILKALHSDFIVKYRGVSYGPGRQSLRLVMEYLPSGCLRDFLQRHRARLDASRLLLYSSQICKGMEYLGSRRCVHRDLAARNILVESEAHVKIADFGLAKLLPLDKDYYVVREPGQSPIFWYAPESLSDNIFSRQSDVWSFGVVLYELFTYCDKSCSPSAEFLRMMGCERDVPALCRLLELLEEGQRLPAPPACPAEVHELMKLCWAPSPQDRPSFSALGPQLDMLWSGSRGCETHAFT
Type: biochemical
Method in brief: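 Sf21-baculovirus-expressed JAK3 (JH1+JH2), glutathione-bead purified, with biotinylated peptide substrate (in buffer containing 10 μM ATP) in HEPES pH 7.5/MgCl2/DTT, 1 h RT. Product was captured on Neutravidin, detected with HRP anti-phosphotyrosine (PY99)/TMB, OD 450/650 nm. Triplicate 16-point half-log series from 200 μM gave IC50; otherwise % inhibition at 1 μM.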

Question: For `CCCNC(=O)OC1CCn2c3ccccc3c3c4c(c5c6ccccc6n(c5c32)C1)C(=O)NC4=O` (stereo not drawn) [Cpd 38, 12,13-[2-(prop-1-ylcarbamoyloxy)-butan-1,4-yl]-12,13-dihydro-5,7-dioxo-6H-indolo[2,3-a]pyrrolo[3,4-c]carbazole], which IC50 is on record?
Answer: Its IC50 is greater than 400 nM.

Question: `O=C1NCc2c1c1c3ccccc3n3c1c1c2c2ccccc2n1CC(COC(=O)N1CCC(N2CCCC2)CC1)C3` (stereo not drawn) [Cpd 162, 12,13-{2-[(4-pyrrolidin-1-yl-piperidin-1-yl)carbonyloxymethyl]-propan-1,3-yl}-6,7,12,13-tetrahydro-5-oxo-5H-indolo[2,3-a]pyrrolo[3,4-c]carbazole] was tested. Which IC50 did it give?
Answer: The IC50 was 655 nM.

Question: Which IC50 does the source give for `O=C1NCc2c1c1c3cc(/C=C/c4ccccn4)ccc3n3c1c1c2c2ccccc2n1CC(CO)C3` (stereo not drawn) [Cpd 216, 3-[(2E)-2-pyridin-2-yl-ethenyl]-12,13-(2-hydroxymethyl-propan-1,3-yl)-6,7,12,13-tetrahydro-5-oxo-5H-indolo[2,3-a]pyrrolo[3,4-c]carbazole] here?
Answer: The IC50 was 310 nM.

Question: With `Cc1ccc(CNC(=O)OCC2(O)Cn3c4ccccc4c4c5c(c6c7ccccc7n(c6c43)C2)C(=O)NC5)o1` (stereo not drawn) [Cpd 141, 12,13-(2-hydroxy-2-{[(5-methyl-furan-2-yl)methyl]carbamoyloxymethyl}-propan-1,3-yl)-6,7,12,13h-tetrahydro-5-oxo-5H-indolo[2,3-a]pyrrolo[3,4-c]carbazole] as the compound, how does the IC50 read?
Answer: Its IC50 is 117 nM.

Question: With `CC1(C)O[C@H]2Cn3c4ccccc4c4c5c(c6c7ccccc7n(c6c43)C[C@@H]2O1)C(=O)NC5` [Cpd 16, 12,13-[(4S,5S)-2,2-dimethyl-[1,3]dioxolo[4,5-b]butan-1,4-yl]-6,7,12,13-tetrahydro-5-oxo-5H-indolo[2,3-a]pyrrolo[3,4-c]carbazole] as the compound, how does the IC50 read?
Answer: The IC50 was 105 nM.

Question: `CN(C)CCN(Cc1ccccc1)C(=O)OC1Cn2c3ccccc3c3c4c(c5c6ccccc6n(c5c32)CC1O)C(=O)NC4=O` (stereo not drawn) [Cpd 69, 12,13-(2-{[N-benzyl-N-(2-dimethylamino-ethyl)]carbamoyloxy}-3-hydroxy-butan-1,4-yl)-12,13-dihydro-5,7-dioxo-6H-indolo[2,3-a]pyrrolo[3,4-c]carbazole] was tested. Which IC50 did it give?
Answer: Its IC50 is 55 nM.

Question: `COCCNC(=O)OCC1Cn2c3ccccc3c3c4c(c5c6ccccc6n(c5c32)C1)C(=O)NC4` (stereo not drawn) [Cpd 154, 12,13-{2-[(2-methoxy-ethyl)carbamoyloxymethyl]propan-1,3-yl]-6,7,12,13-tetrahydro-5-oxo-5H-indolo[2,3-a]pyrrolo[3,4-c]carbazole] was tested. Which IC50 did it give?
Answer: The IC50 was 84 nM.

Question: `CN(C)CC(=O)OC1Cn2c3ccccc3c3c4c(c5c6ccccc6n(c5c32)CC1OC(=O)CN(C)C)C(=O)NC4` (stereo not drawn) [Cpd 15, 12,13-{2,3-bis-[(dimethylaminomethyl)carbonyloxy]-butan-1,4-yl}-6,7,12,13-tetrahydro-5-oxo-5H-indolo[2,3-a]pyrrolo[3,4-c]carbazole] was tested. Which IC50 did it give?
Answer: The IC50 was 653 nM.

Question: With `COC(=O)C1(O)Cn2c3ccccc3c3c4c(c5c6ccccc6n(c5c32)CC1O)C(=O)NC4=O` (stereo not drawn) [Cpd 12, 12,13-(2-methoxycarbonyl-2,3-dihydroxy-butan-1,4-yl)-12,13-dihydro-5,7-dioxo-6H-indolo[2,3-a]pyrrolo[3,4-c]carbazole] as the compound, how does the IC50 read?
Answer: The IC50 was 1 nM.

Question: `O=C1NC(=O)c2c1c1c3ccccc3n3c1c1c2c2ccccc2n1CC(OC(=O)N1CCN(c2ccccc2)CC1)C(O)C3` (stereo not drawn) [Cpd 102, 12,13-{2-[(4-phenyl-piperazin-1-yl)carbonyloxy]-3-hydroxy-butan-1,4-yl}-12,13-dihydro-5,7-dioxo-6H-indolo[2,3-a]pyrrolo[3,4-c]carbazole] was tested. Which IC50 did it give?
Answer: The IC50 was 81 nM.

Question: Which IC50 does the source give for `O=C1NCc2c1c1c3ccccc3n3c1c1c2c2ccccc2n1CC(O)(COC(=O)N1CCOCC1)C3` (stereo not drawn) [Cpd 138, 12,13-[2-hydroxy-2-(morpholin-4-yl-carbonyloxymethyl)-propan-1,3-yl]-6,7,12,13-tetrahydro-5-oxo-5H-indolo[2,3-a]pyrrolo[3,4-c]carbazole] here?
Answer: Its IC50 is 161 nM.

Question: Which IC50 does the source give for `CC(C)OCc1ccc2c(c1)c1c3c(c4c5cc(Br)ccc5n5c4c1n2CC(CO)C5)C(=O)NC3` (stereo not drawn) [Cpd 209, 3-bromo-9-(isopropoxymethyl)-12,13-(2-hydroxymethyl-propan-1,3-yl)-6,7,12,13-tetrahydro-5-oxo-5H-indolo[2,3-a]pyrrolo[3,4-c]carbazole] here?
Answer: The IC50 was 70 nM.

Question: Which IC50 does the source give for `O=C1NCc2c1c1c3cc([N+](=O)[O-])ccc3n3c1c1c2c2ccccc2n1CC(O)C(O)C3` (stereo not drawn) [Cpd 191, 3-nitro-12,13-(2,3-dihydroxy-butan-1,4-yl)-6,7,12,13-tetrahydro-5-oxo-5H-indolo[2,3-a]pyrrolo[3,4-c]carbazole] here?
Answer: Its IC50 is 115 nM.

Question: How did the IC50 turn out when `O=C1NCc2c1c1c3ccccc3n3c1c1c2c2ccccc2n1CC(O)(COC(=O)N1CCC(CO)CC1)C3` (stereo not drawn) [Cpd 143, 12,13-{2-hydroxy-2-[(4-hydroxymethyl-piperidin-1-yl)carbonyloxymethyl]-propan-1,3-yl}-6,7,12,13-tetrahydro-5-oxo-5H-indolo[2,3-a]pyrrolo[3,4-c]carbazole] was run?
Answer: Its IC50 is roughly 200 nM.

Question: For `O=C1NCc2c1c1c3ccccc3n3c1c1c2c2ccccc2n1CC(COC(=O)N1CCN(CCOCCO)CC1)C3` (stereo not drawn) [Cpd 166, 12,13-[2-({4-[2-(2-hydroxy-ethoxy)ethyl]piperazin-1-yl}carbonyloxymethyl)-propan-1,3-yl]-6,7,12,13-tetrahydro-5-oxo-5H-indolo[2,3-a]pyrrolo[3,4-c]carbazole], which IC50 is on record?
Answer: The IC50 was 578 nM.

Question: How did the IC50 turn out when `CN(C)CCCN(CCCN(C)C)C(=O)OC1Cn2c3ccccc3c3c4c(c5c6ccccc6n(c5c32)CC1O)C(=O)NC4=O` (stereo not drawn) [Cpd 109, 12,13-(2-{[N,N-bis-(3-dimethylamino-prop-1-yl)]carbamoyloxy}-3-hydroxy-butan-1,4-yl)-12,13-dihydro-5,7-dioxo-6H-indolo[2,3-a]pyrrolo[3,4-c]carbazole] was run?
Answer: The IC50 was greater than 200 nM.

Question: `CN1CCN(Cc2ccc3c(c2)c2c4c(c5c6ccccc6n6c5c2n3CC(O)C(O)C6)CNC4=O)CC1` (stereo not drawn) [Cpd 193, 3-(4-methyl-piperazin-1-ylmethyl)-12,13-(2,3-dihydroxy-butan-1,4-yl)-6,7,12,13-tetrahydro-5-oxo-5H-indolo[2,3-a]pyrrolo[3,4-c]carbazole] was tested. Which IC50 did it give?
Answer: The IC50 was 135 nM.

Question: `O=C1NC(=O)c2c1c1c3ccccc3n3c1c1c2c2ccccc2n1CC(OC(=O)N1CCN(Cc2ccc4c(c2)OCO4)CC1)CC3` (stereo not drawn) [Cpd 54, 12,13-(2-{[4-(benzo[1,3]dioxol-5-yl-methyl)piperazin-1-yl]carbonyloxy}-butan-1,4-yl)-12,13-dihydro-5,7-dioxo-6H-indolo[2,3-a]pyrrolo[3,4-c]carbazole] was tested. Which IC50 did it give?
Answer: Its IC50 is 1000 nM.

Question: `COc1ccccc1CNC(=O)OC1Cn2c3ccccc3c3c4c(c5c6ccccc6n(c5c32)CC1O)C(=O)NC4=O` (stereo not drawn) [Cpd 78, 12,13-{2-[(2-methoxy-benzyl)carbamoyloxy]-3-hydroxy-butan-1,4-yl}-12,13-dihydro-5,7-dioxo-6H-indolo[2,3-a]pyrrolo[3,4-c]carbazole] was tested. Which IC50 did it give?
Answer: Its IC50 is 179 nM.

Question: With `CC(C)NC(=O)OC1CCn2c3ccccc3c3c4c(c5c6ccccc6n(c5c32)CC1)C(=O)NC4` (stereo not drawn) [Cpd 180, 12,13-[3-(isopropyl-carbamoyloxy)-pentan-1,5-yl]-6,7,12,13-tetrahydro-5-oxo-5H-indolo[2,3-a]pyrrolo[3,4-c]carbazole] as the compound, how does the IC50 read?
Answer: Its IC50 is 706 nM.

Question: Which IC50 does the source give for `O=C1NCc2c1c1c3ccccc3n3c1c1c2c2ccccc2n1Cc1c[nH]cc1C3` [Cpd 30, 12,13-(1H-pyrrol[3,4-b]butan-1,4-yl)-6,7,12,13-tetrahydro-5-oxo-5H-indolo[2,3-a]pyrrolo[3,4-c]carbazole] here?
Answer: Its IC50 is 68 nM.

Question: Which IC50 does the source give for `CN(C)CCNC(=O)OC1Cn2c3ccccc3c3c4c(c5c6ccccc6n(c5c32)CC1O)C(=O)NC4=O` (stereo not drawn) [Cpd 77, 12,13-[2-[(2-dimethylamino-ethyl)carbamoyloxy]-3-hydroxy-butan-1,4-yl]-12,13-dihydro-5,7-dioxo-6H-indolo[2,3-a]pyrrolo[3,4-c]carbazole] here?
Answer: The IC50 was 86 nM.

Question: Which IC50 does the source give for `CN1CCC(N(C)Cc2ccc3c(c2)c2c4c(c5c6ccccc6n6c5c2n3CC(O)C(O)C6)CNC4=O)CC1` (stereo not drawn) [Cpd 196, 3-{[N-methyl-N-(1-methyl-piperidin-4-yl)]aminomethyl}-12,13-(2,3-dihydroxy-butan-1,4-yl)-6,7,12,13-tetrahydro-5-oxo-5H-indolo[2,3-a]pyrrolo[3,4-c]carbazole] here?
Answer: The IC50 was roughly 1000 nM.

Question: How did the IC50 turn out when `CC(C)NCc1ccc2c(c1)c1c3c(c4c5ccccc5n5c4c1n2CC(CO)C5)CNC3=O` (stereo not drawn) [Cpd 213, 3-(isopropylaminomethyl)-12,13-(2-hydroxymethyl-propan-1,3-yl)-6,7,12,13-tetrahydro-5-oxo-5H-indolo[2,3-a]pyrrolo[3,4-c]carbazole] was run?
Answer: The IC50 was 241 nM.

Reference: patent US20070249590A1, “Substituted indolo[2,3-a]pyrrolo[3,4-c]carbazole compounds useful in treating kinase disorders” (priority 2005, published 2007)
